Test results from ChEMBL document CHEMBL5608222, “Development of 3'-Deoxy-3',4'-didehydro-nucleoside Prodrug Inhibitors of West Nile and Zika Viruses” (ACS Med Chem Lett, 2024).
Activity calls are given as the source filed them. The calls are words filed in the database; no cut-off is given here.

Legend:
Huh-7 [1] = assay: Cytotoxicity against human Huh-7 cells assessed as decrease in cell viability at 1 mM incubated for 5 days by Alamar blue assay; assay type: toxicity, cell-based; conditions: huh-7, 120 h, 1000 µM, time 5 day
Zika virus [2] = assay: Antiviral activity against ZIKV infected in Huh-7 cells assessed as log reduction in viral titer at 0.1 mM preincubated for 24 hrs prior to compound washout followed by viral infection for 1 hr again media washout and compound addition for 3 days by neutral red staining based assay; assay type: functional; conditions: for Activity: time 96.0 hrs
Zika virus [3] = assay: Antiviral activity against ZIKV infected in Huh-7 cells assessed as log reduction in viral titer at 1 mM preincubated for 24 hrs prior to compound washout followed by viral infection for 1 hr again media washout and compound addition for 3 days by neutral red staining based assay; assay type: functional
Huh-7 [4] = assay: Cytotoxicity against human Huh-7 cells at 0.1 to 1 mM incubated for 6 days by neutral red staining based assay; assay type: toxicity, cell-based; conditions: huh-7, 144 h, 1000 µM, dose 0.1-1 mM, time 6 day
[5] = Cytotoxicity against african green monkey Vero cells assessed as decrease in cell viability at 1 mM incubated for 5 days by Alamar blue assay; assay type: toxicity, cell-based; conditions: chlorocebus sabaeus, 120 h, 1000 µM, time 5 day
West Nile virus [6] = assay: Antiviral activity against WNV infected in Huh-7 cells assessed as log reduction in viral titer at 0.1 to 1 mM preincubated for 24 hrs prior to compound washout followed by viral infection for 1 hr again media washout and compound addition for 3 days by neutral red staining based assay; assay type: functional; conditions: dose 0.1-1 mM; for Activity: time 96.0 hrs
Huh-7 [7] = assay: Cytotoxicity against human Huh-7 cells assessed as decrease in cell viability at 0.1 to 1 mM incubated for 5 days by Alamar blue assay; assay type: toxicity, cell-based; conditions: huh-7, 120 h, 1000 µM, dose 0.1-1 mM, time 5 day
[8] = Cytotoxicity against african green monkey Vero cells assessed as decrease in cell viability at 0.1 to 1 mM incubated for 5 days by Alamar blue assay; assay type: toxicity, cell-based; conditions: chlorocebus sabaeus, 120 h, 1000 µM, dose 0.1-1 mM, time 5 day
Zika virus [9] = assay: Antiviral activity against ZIKV infected in Huh-7 cells assessed as reduction in viral titer at 0.1 to 1 mM preincubated for 24 hrs prior to compound washout followed by viral infection for 1 hr again media washout and compound addition for 3 days by neutral red staining based assay; assay type: functional; conditions: dose 0.1-1 mM
[10] = Cytotoxicity against african green monkey Vero cells assessed as decrease in cell viability at 0.1 to 1 mM incubated for 2 days by Alamar blue assay; assay type: toxicity, cell-based; conditions: chlorocebus sabaeus, 48 h, 1000 µM, dose 0.1-1 mM, time 2 day
West Nile virus [11] = assay: Antiviral activity against WNV infected in Huh-7 cells assessed as log reduction in viral titer at 0.1 mM preincubated for 24 hrs prior to compound washout followed by viral infection for 1 hr again media washout and compound addition for 3 days by neutral red staining based assay; assay type: functional; conditions: time 96 hrs
Huh-7 [12] = assay: Cytotoxicity against human Huh-7 cells at 1 mM; assay type: toxicity, cell-based; conditions: huh-7, 120 h, 1000 µM, time 5 day
West Nile virus [13] = assay: Antiviral activity against WNV infected in Huh-7 cells assessed as log reduction in viral titer at 1 mM preincubated for 24 hrs prior to compound washout followed by viral infection for 1 hr again media washout and compound addition for 3 days by neutral red staining based assay; assay type: functional, organism-based; conditions: time 96.0 hrs
[14] = Cytotoxicity against human Huh-7 cells assessed as cell viability at 1 mM incubated for 6 days by neutral red staining based assay; assay type: toxicity; conditions: time 6 day, read-out: Activity

Structure (SMILES) | Activity (Huh-7 [1]) [%] | Activity (Huh-7 [4]) | Activity [5] | Activity (West Nile virus [6]) | Activity (Huh-7 [7]) | Activity [8] | also measured
CC(C)OC(=O)[C@H](C)N[P@](=O)(OCC1=C[C@@H](O)[C@H](n2ccc(=O)[nH]c2=O)O1)Oc1ccccc1 | 70 | Non-Toxic | Non-Toxic | inactive |  |  | log(activity) (Zika virus [2]; time 96 hrs): 2.5; Activity (Zika virus [3]; time 96.0 hrs): inactive
O=c1[nH]cnc2c1ncn2[C@@H]1OC(CO)=C[C@H]1O |  | Non-Toxic |  | inactive | Non-Toxic | Non-Toxic | 
CC(C)OC(=O)[C@H](C)N[P@](=O)(OCC1=C[C@@H](O)[C@H](n2cnc3c(=O)[nH]c(N)nc32)O1)Oc1ccccc1 |  | Non-Toxic |  | inactive | Non-Toxic | Non-Toxic | Activity (Zika virus [2]): Active; log(activity) (Zika virus [3]; time 96 hrs): 3.8
O=c1ccn([C@@H]2OC(CO)=C[C@H]2O)c(=O)[nH]1 |  | Non-Toxic |  | inactive | Non-Toxic | Non-Toxic | 
Cc1cn([C@@H]2OC(CO[P@@](=O)(N[C@@H](C)C(=O)OC(C)C)Oc3ccccc3)=C[C@H]2O)c(=O)[nH]c1=O | 50 | Non-Toxic | Non-Toxic | inactive |  |  | Activity (Zika virus [9]; time 96.0 hrs): inactive
Nc1ncnc2c1ncn2[C@@H]1OC(CO)=C[C@H]1O |  | Toxic |  |  | < 25% | Non-Toxic | Activity [10]: Toxic; log(activity) (West Nile virus [11]): 1.5; Activity (Huh-7 [12]): Toxic; Activity (West Nile virus [13]): Active; viability at 144 h, 1000 µM [14]: 70%
CC(C)OC(=O)[C@H](C)N[P@](=O)(OCC1=C[C@@H](O)[C@H](n2cnc3c(=O)[nH]cnc32)O1)Oc1ccccc1 |  | Non-Toxic |  | inactive | Non-Toxic | Non-Toxic | Activity (Zika virus [9]; time 96.0 hrs): inactive
Cc1cn([C@@H]2OC(CO)=C[C@H]2O)c(=O)[nH]c1=O |  | Non-Toxic |  | inactive | Non-Toxic | Non-Toxic | 
Nc1nc2c(ncn2[C@@H]2OC(CO)=C[C@H]2O)c(=O)[nH]1 |  | Non-Toxic |  | inactive | Non-Toxic | Non-Toxic | 
CC(C)OC(=O)[C@H](C)N[P@](=O)(OCC1=C[C@@H](O)[C@H](n2cnc3c(N)ncnc32)O1)Oc1ccccc1 | 25 | Toxic | 80% |  |  |  | log(activity) (West Nile virus [11]): 2.5; Activity (Huh-7 [12]): Toxic; Activity (Zika virus [2]): Active; Activity (Zika virus [9]; time 96 hrs): 100%; Activity (West Nile virus [13]): Active; viability at 144 h, 1000 µM [14]: 70%; log(activity) (West Nile virus [6]; time 96 hrs): 4.8
